Source: patent publication US8440674B2, “Substituted pyrimidine compounds as RAF inhibitors and methods of use” (Amgen Inc., priority 2005, dated 2013)
Where two headings read alike, the source gives them in different places.

Assays:
[1] = biological target: recombinant HuBraf V600E (Homo sapiens, UniProt P15056, V600E); assay: B-raf Homogenous Time Resolved Fluorescent (HTRF) kinase assay; assay type: biochemical; settings: substrate MEK1, 10 uM ATP; threshold lists; read-out: IC50 for the inhibition of B-raf as measured by the HTRF assay
Chain of recombinant HuBraf V600E (P15056 whole entry V600E): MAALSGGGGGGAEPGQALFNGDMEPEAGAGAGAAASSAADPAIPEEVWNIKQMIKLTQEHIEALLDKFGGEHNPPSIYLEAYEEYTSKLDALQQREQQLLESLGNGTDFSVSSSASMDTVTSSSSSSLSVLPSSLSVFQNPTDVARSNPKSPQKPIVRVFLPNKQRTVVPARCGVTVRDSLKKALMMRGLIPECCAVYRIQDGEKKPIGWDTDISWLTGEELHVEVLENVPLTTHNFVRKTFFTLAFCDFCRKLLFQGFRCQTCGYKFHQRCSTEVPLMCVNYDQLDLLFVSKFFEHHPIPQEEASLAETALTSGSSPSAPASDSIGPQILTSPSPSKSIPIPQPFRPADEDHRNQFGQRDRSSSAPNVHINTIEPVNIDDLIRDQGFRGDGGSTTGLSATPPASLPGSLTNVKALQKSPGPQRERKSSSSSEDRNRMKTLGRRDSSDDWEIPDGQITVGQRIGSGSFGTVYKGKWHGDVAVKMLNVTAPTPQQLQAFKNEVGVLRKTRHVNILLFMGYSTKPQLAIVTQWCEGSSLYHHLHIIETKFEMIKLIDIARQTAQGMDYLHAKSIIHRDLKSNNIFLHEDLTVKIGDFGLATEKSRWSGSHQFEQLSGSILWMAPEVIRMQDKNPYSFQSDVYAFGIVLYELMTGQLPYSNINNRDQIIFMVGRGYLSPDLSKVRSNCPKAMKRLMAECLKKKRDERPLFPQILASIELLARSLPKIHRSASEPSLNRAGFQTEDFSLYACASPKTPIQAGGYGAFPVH
Description: A Homogeneous Time Resolved Fluorescence (HTRF) kinase assay was established to assay the ability of compounds to inhibit human mutant Braf kinase activity on the substrate MEK1. […] The final concentration of the kinase reaction buffer is 50 mM Tris-HCL pH 7.5, 10 mM MgCl2, 0.5% glucose, 0.5 mM DTT, 0.01% BSA.
The detection reaction proceeds for one hour and is read on a RubyStar (BMG Labtech) counter. IC50s for the test compounds are generated using Excel-XLfit software.

[2] = tested on: A375 cells, a human melanoma cell line having the V600E mutant Braf; assay: B-Raf cell-based assay (ratio of phospho-ERK1/2 to total ERK1/2); settings: A-375, 1 h, P-ERK/total ERK, 60 minute incubation, read-out: IC50 for the inhibition of B-raf as measured by the cell-based assay
Description: A cell-based assay was optimized to assay the ability of compounds to inhibit Braf activity in a whole cell context. […] The cell-based assay quantifies the ratio of phospho-ERK1/2 to total ERK1/2 and can thereby assay the cellular inhibition of Braf kinase activity.
A375 cells are plated into 96 well plates and grown to confluence. The cells are then changed into starve media (DMEM/0.1% BSA) for 60 minutes. Compounds in DMSO dose curves are then diluted in starve media and added to cells. […] After a 60 minute incubation the cells are fixed for 20 minutes at room temperature in 4% formaldehyde with 0.1%Triton X-100, protease and phosphatase inhibitors in PBS. The cells are washed four times in PBS then blocked for 60 minutes using a one to one mix of Odyssey blocking buffer (Li-Cor Biosciences, Inc) and PBS. Primary antibodies (rabbit anti-phospho p42/p44 MAPK (P-ERK1/2) from Cell Signaling Technology and mouse anti-ERK2 from Santa Cruz Biotechnology) are diluted in blocking buffer, added to the cells and incubated overnight at 4° C. The cells are then washed four times in PBS/0.1% Tween-20. Secondary antibodies (anti-mouse IRDye 800CW from Rockland, Inc and anti-rabbit AlexaFlour680 from Molecular Probes) are diluted in blocking buffer/0.5% Tween and incubated on cells for 60 minutes. After 4 washes in PBS/0.1% Tween-20 the microplate is scanned on an Odyssey Infrared Imager (Li-Cor Bioscience) which can read the signal given by the two secondary antibodies on their respective channels. The ratio of P-ERK/total ERK is determined and IC50s generated using Excel-XLfit software.

Row | IC50 [1] | IC50 ([2]; threshold list) | IC50 ([2]; threshold lists) | SMILES
1 | – | ≤ 500 nM | – | CNc1ncc2cc(-c3c(C)ccc4c(Nc5cccc(C#N)c5)nn(C)c34)ccc2n1 [Example 196]
2 | ≤ 250 nM | – | – | Cc1ccc(C(F)(F)F)cc1Nc1nccc2c(Nc3ncccc3-c3ccncn3)c(C)ccc12 [Example 344, 6-methyl-N1-(2-methyl-5-(trifluoromethyl)phenyl)-N5-(3-(pyrimidin-4-yl)pyridin-2-yl)isoquinoline-1,5-diamine]
3 | – | ≤ 500 nM | ≤ 1000 nM | CNc1cc(-c2cccnc2F)ncn1 [Example 345, 6-(2-fluoropyridin-3-yl)-N-methylpyrimidin-4-amine]
4 | – | – | ≤ 5000 nM | CNc1cc(-c2cccnc2Nc2c(C)ccc3c(Nc4cc(C(F)(F)F)ccc4C)nccc23)ncn1 [Example 349]
5 | – | – | ≤ 5000 nM | CNc1ncc2cc(-c3c(C)ccc4c(Nc5cccc(C(F)(F)F)c5)nccc34)c(=O)n(C)c2n1 [Example 354, 8-methyl-6-(6-methyl-1-(3-(trifluoromethyl)phenylamino)isoquinolin-5-yl)-2-(methylamino)pyrido[2,3-d]pyrimidin-7(8H)-one]
6 | ≤ 250 nM | – | – | CNc1ncc2cc(-c3cccc4c(Nc5cccc(C(F)(F)F)c5)nccc34)c(=O)n(C)c2n1 [Example 360]
7 | ≤ 250 nM | – | – | Cc1ccc2c(Nc3cccc(C(F)(F)F)c3)nccc2c1-c1ccc2nc(N)ncc2c1 [Example 361, 6-(6-methyl-1-(3-(trifluoromethyl)phenylamino)isoquinolin-5-yl)quinazolin-2-amine]
8 | ≤ 1000 nM | – | – | CNc1ncc2cc(-c3c(C)ccc4c(Nc5cncc(OC(C)C)c5)nccc34)ccc2n1 [Example 378, 6-(1-(5-isopropoxypyridin-3-ylamino)-6-methylisoquinolin-5-yl)-N-methylquinazolin-2-amine]
9 | – | – | ≤ 5000 nM | CNc1nccc(-c2cccnc2Oc2c(C)ccc3c(Nc4cccc(OC(F)(F)F)c4)nccc23)n1 [Example 413, 6-methyl-5-(3-(2-(methylamino)pyrimidin-4-yl)pyridin-2-yloxy)-N-(3-(trifluoromethoxy)phenyl)isoquinolin-1-amine]
10 | – | – | ≤ 5000 nM | CNc1ncc2cc(-c3c(C)ccc4c(Nc5cccc(C(C)(C)O)c5)nncc34)ccc2n1 [Example 433, 2-(3-(6-methyl-5-(2-(methylamino)quinazolin-6-yl)phthalazin-1-ylamino)phenyl)propan-2-ol]
11 | – | ≤ 500 nM | – | CNc1ncc2cc(-c3c(C)ccc4c(Nc5ccc6c(c5)NC(=O)CC6(C)C)nnc(C)c34)ccc2n1 [Example 438]

The next lines start with the compound.

Row | SMILES | IC50 [1] | IC50 ([2]; threshold list) | IC50 ([2]; threshold lists)
12 | Cc1ccc2c(Nc3cccc(C(F)(F)F)c3)nccc2c1Nc1ncccc1-c1ccncn1 [Example 7, 6-methyl-N^5-(3-(4-pyrimidinyl)-2-pyridinyl)-N^1-(3-(trifluoromethyl)phenyl)-1,5-isoquinolinediamine] | ≤ 250 nM | ≤ 500 nM | –
13 | COc1cc(Nc2nccc3c(Nc4ncccc4-c4ccncn4)cccc23)cc(C(F)(F)F)c1 [Example 8, N^1-(3-(methyloxy)-5-(trifluoromethyl)phenyl)-N^5-(3-(4-pyrimidinyl)-2-pyridinyl)-1,5-isoquinolinediamine] | ≤ 250 nM | ≤ 500 nM | –
14 | Cc1ccc2c(Nc3ccccc3)nccc2c1Nc1ncccc1-c1ccncn1 [Example 9, 6-methyl-N^1-phenyl-N^5-(3-(4-pyrimidinyl)-2-pyridinyl)-1,5-isoquinolinediamine] | ≤ 250 nM | ≤ 500 nM | –
15 | Cc1ccc2c(Nc3cccc(C(C)(C)C)c3)nccc2c1Nc1ncccc1-c1ccncn1 [Example 10, N^1-(3-(1,1-dimethylethyl)phenyl)-6-methyl-N^5-(3-(4-pyrimidinyl)-2-pyridinyl)-1,5-isoquinolinediamine] | ≤ 250 nM | ≤ 500 nM | –
16 | Cc1ccc2c(Nc3cccc(N(C)C)c3)nccc2c1Nc1ncccc1-c1ccncn1 [Example 11, N^1-(3-(dimethylamino)phenyl)-6-methyl-N^5-(3-(4-pyrimidinyl)-2-pyridinyl)-1,5-isoquinolinediamine] | ≤ 250 nM | ≤ 500 nM | –
17 | Cc1ccc2c(Nc3cccc(C(C)C)c3)nccc2c1Nc1ncccc1-c1ccncn1 [Example 12, 6-methyl-N^1-(3-(1-methylethyl)phenyl)-N^5-(3-(4-pyrimidinyl)-2-pyridinyl)-1,5-isoquinolinediamine] | ≤ 250 nM | ≤ 500 nM | –
18 | Cc1ccc2c(Nc3cccc(OC(C)C)c3)nccc2c1Nc1ncccc1-c1ccncn1 [Example 13, 6-methyl-N^1-(3-((1-methylethyl)oxy)phenyl)-N^5-(3-(4-pyrimidinyl)-2-pyridinyl)-1,5-isoquinolinediamine] | ≤ 250 nM | ≤ 500 nM | –
19 | Cc1ccc2c(Nc3cccc(Cl)c3)nccc2c1Nc1ncccc1-c1ccncn1 [Example 14, N^1-(3-chlorophenyl)-6-methyl-N^5-(3-(4-pyrimidinyl)-2-pyridinyl)-1,5-isoquinolinediamine] | ≤ 250 nM | ≤ 500 nM | –
20 | Cc1ccc2c(Nc3cc(C(C)(C)C)nn3C)nccc2c1Nc1ncccc1-c1ccncn1 [Example 15, N^1-(3-(1,1-dimethylethyl)-1-methyl-1H-pyrazol-5-yl)-6-methyl-N^5-(3-(4-pyrimidinyl)-2-pyridinyl)-1,5-isoquinolinediamine] | ≤ 250 nM | ≤ 500 nM | –
21 | Cc1ccc2c(Nc3ccc(C(C)(C)C)cc3)nccc2c1Nc1ncccc1-c1ccncn1 [Example 16, N^1-(4-(1,1-dimethylethyl)phenyl)-6-methyl-N^5-(3-(4-pyrimidinyl)-2-pyridinyl)-1,5-isoquinolinediamine] | ≤ 250 nM | ≤ 500 nM | –
22 | CNc1nccc2c(Nc3ncccc3-c3ccncn3)c(C)ccc12 [Example 17, N^1-6-dimethyl-N^5-(3-(4-pyrimidinyl)-2-pyridinyl)-1,5-isoquinolinediamine] | ≤ 250 nM | ≤ 500 nM | –
23 | Cc1ccc2c(Nc3cccc(OC(F)(F)F)c3)nccc2c1Nc1ncccc1-c1ccncn1 [Example 18, 6-methyl-N^5-(3-(4-pyrimidinyl)-2-pyridinyl)-N^1-(3-((trifluoromethyl)oxy)phenyl)-1,5-isoquinolinediamine] | ≤ 250 nM | ≤ 500 nM | –
24 | COc1ccc(Nc2nccc3c(Nc4ncccc4-c4ccncn4)c(C)ccc23)cc1C(F)(F)F [Example 19, 6-methyl-N^1-(4-(methyloxy)-3-(trifluoromethyl)phenyl)-N^5-(3-(4-pyrimidinyl)-2-pyridinyl)-1,5-isoquinolinediamine] | ≤ 250 nM | ≤ 500 nM | –
25 | CNc1ncc2cc(-c3c(C)ccc4c(Nc5cccc(C(F)(F)F)c5)nccc34)ccc2n1 [Example 24, N-methyl-6-(6-methyl-1-((3-(trifluoromethyl)phenyl)amino)-5-isoquinolinyl)-2-quinazolinamine] | ≤ 250 nM | ≤ 500 nM | –
26 | CNc1ncc2cc(-c3c(C)ccc4c(Nc5cccc(OC(C)C)c5)nccc34)ccc2n1 [Example 25, N-methyl-6-(6-methyl-1-((3-((1-methylethyl)oxy)phenyl)amino)-5-isoquinolinyl)-2-quinazolinamine] | ≤ 250 nM | ≤ 500 nM | –
27 | CNc1ncc2cc(-c3c(C)ccc4c(Nc5cccc(C(C)C)c5)nccc34)ccc2n1 [Example 26, N-methyl-6-(6-methyl-1-((3-(1-methylethyl)phenyl)amino)-5-isoquinolinyl)-2-quinazolinamine] | ≤ 250 nM | ≤ 500 nM | –
28 | CNc1ncc2cc(-c3c(C)ccc4c(Nc5cc(C(C)(C)C)on5)nccc34)ccc2n1 [Example 27, 6-(1-((5-(1,1-dimethylethyl)-3-isoxazolyl)amino)-6-methyl-5-isoquinolinyl)-N-methyl-2-quinazolinamine] | ≤ 250 nM | ≤ 500 nM | –
29 | CNc1cc(-c2cccnc2Nc2c(C)ccc3c(Nc4cc(C(C)(C)C)nn4C)nccc23)ncn1 [Example 69, N^1-(3-tert-butyl-1-methyl-1H-pyrazol-5-yl)-6-methyl-N^5-(3-(6-(methylamino)pyrimidin-4-yl)pyridin-2-yl)isoquinoline-1,5-diamine] | – | – | ≤ 5000 nM
30 | CNc1ncc2cc(-c3c(C)ccc4c(Nc5cccc(OC(F)(F)F)c5)nc(C)nc34)ccc2n1 [Example 86, 6-(2,7-dimethyl-4-(3-(trifluoromethoxy)phenylamino)quinazolin-8-yl)-N-methylquinazolin-2-amine] | – | – | ≤ 5000 nM
31 | CNc1ncc2cc(-c3c(C)ccc4c(Nc5ccc(C#N)cc5)nccc34)ccc2n1 [Example 103] | – | ≤ 500 nM | ≤ 1000 nM
32 | CNc1ncc2cc(-c3c(C)ccc4c(Nc5cccnc5)nn(C)c34)ccc2n1 [Example 163] | – | ≤ 500 nM | ≤ 1000 nM
